Laboratory results from patent US11911349B2, “Rapidly improving vascular conditions by administering vitamin K” (NATTOPHARMA AS, priority 2018, dated 2024).

Legend:
[1] = system: kidney transplantation patients; experiment: Clinical study: pulse wave velocity measurement of arterial stiffness in kidney transplantation patients; type: in vivo, human; conditions: 360 ug/day for 8 weeks, kidney transplant patients
Protocol: Clinical Study to study the efficacy and safety of Vitamin K2 supplementation on arterial stiffness, the rigidity of arterial walls, in kidney transplantation patients.
A clinical study was carried out. Arterial wall property measurements were taken at t=0 and t=8 weeks and show a dramatic improvement in arterial wall flexibility. This is good support for concluding that the ingestion of vitamin K, even over this short period, is an effective way of improving endothelial function, reducing arterial stiffness and reducing calcification. […] It is surprising and unexpected because calcification is a slow progressive process and it was thought that reversing this process would also be slow and progressive.
(§1) Participants were enrolled in a clinical trial in which the effects of vitamin K2 were determined for patients who had recently undergone a kidney transplant. At the beginning of the study, patients were subjected to a non-invasive pulse wave velocity measurement to measure arterial stiffness/flexibility, as well as blood analysis. The study participants were then instructed to receive a specific daily dose of MenaQ7 vitamin K2 menaquinone-7 (360 ug/day) for a total of 8 weeks. At the end of 8 weeks, patients were again examined with a follow-up examination, a non-invasive pulse wave velocity measurement and blood analysis and drug treatment was discontinued.

matrix gla protein (MGP) = experiment: Clinical study: blood analysis of matrix gla protein (MGP) carboxylation; type: in vivo, human; conditions: 360 ug/day for 8 weeks, kidney transplant patients
Protocol: as §1
As part of the blood analysis, carboxylated matrix gla protein (MGP) was measured as a direct measure of vitamin K2 activity. The carboxylated MGP inhibits calcification of blood vessels and Vitamin K2 stimulates carboxylation of MGP.

CC(C)=CCC/C(C)=C/CC/C(C)=C/CC/C(C)=C/CC/C(C)=C/CC/C(C)=C/CC/C(C)=C/CC1=C(C)C(=O)c2ccccc2C1=O [MenaQ7, menaquinone-7] was tested, and the “mean reduction in measured pulse-wave velocity” value [1] was 30% and the “mean reduction of levels of uncarboxylated MGP” value (matrix gla protein (MGP)) was 55%.
